How the values were obtained:
[1] = target: T1, dipeptidylpeptidase III (DPPIII) (Homo sapiens, UniProt Q9NY33); assay: Inhibition of HxBP—Rh labeling of dipeptidylpeptidase III in MCF7 soluble proteome
T1 sequence (Q9NY33 1-737): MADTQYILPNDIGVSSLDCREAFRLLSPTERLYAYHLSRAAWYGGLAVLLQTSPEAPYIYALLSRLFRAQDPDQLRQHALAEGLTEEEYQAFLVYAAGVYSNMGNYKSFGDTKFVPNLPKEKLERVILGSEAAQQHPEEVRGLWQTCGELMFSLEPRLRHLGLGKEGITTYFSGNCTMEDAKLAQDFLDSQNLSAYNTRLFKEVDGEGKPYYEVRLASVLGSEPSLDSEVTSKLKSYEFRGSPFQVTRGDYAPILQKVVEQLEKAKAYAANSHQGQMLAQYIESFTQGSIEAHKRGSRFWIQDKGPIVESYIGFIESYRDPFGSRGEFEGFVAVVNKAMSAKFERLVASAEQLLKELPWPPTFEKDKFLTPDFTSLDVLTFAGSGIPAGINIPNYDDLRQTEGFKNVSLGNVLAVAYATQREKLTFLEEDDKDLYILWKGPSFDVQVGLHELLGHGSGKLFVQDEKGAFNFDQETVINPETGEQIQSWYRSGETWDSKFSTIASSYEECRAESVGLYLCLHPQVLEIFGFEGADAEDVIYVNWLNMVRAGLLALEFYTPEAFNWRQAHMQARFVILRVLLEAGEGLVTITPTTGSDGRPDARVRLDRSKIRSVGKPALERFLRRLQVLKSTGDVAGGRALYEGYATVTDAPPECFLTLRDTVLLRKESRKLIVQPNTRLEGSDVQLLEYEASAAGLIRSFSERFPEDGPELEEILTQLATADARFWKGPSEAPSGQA
Description: For labeling and detection of MPs using HxBP—Rh, the following technique can be used. […] Kidney and cancer cell proteomes, prepared as known to those having ordinary skill in the art, can be adjusted to 1 mg/ml in 50 mM Tris-HCl buffer (pH 8.0) prior to labeling. A portion of each cancer cell line proteome sample can be treated with PNGaseF (New England Biolabs) to provide deglycosylated proteomes, as known to those having ordinary skill in the art. Labeled samples can be separated by SDS-PAGE, and visualized in-gel with a Hitachi FMBio IIe flatbed scanner (Mirabio). Integrated band intensities can be calculated from several independent labeling reactions, and averaged to provide the level of each enzyme activity in each sample.
(§1) For measuring the IC50 values for MP inhibitors using HxBP—Rh, the following technique can be used. IC50 values for neprilysin, dipeptidylpeptidase III (DPPIII), and leucine aminopeptidase (LAP) can be determined using Prism Software (Graph Pad) from dose-response curves of three trials at concentrations of GM6001 ranging from 0.001-20 μM and 50 nM HxBP—Rh probe. Neprilysin, DPPIII, and LAP assays can be conducted using MUM-2B membrane, MCF7 soluble, and mouse kidney soluble proteomes, respectively.
Shown is a representative HxBP—Rh labeling (100 nM) profile of the soluble proteome from MCF-7 cells. […]

neprilysin = neprilysin (Homo sapiens, UniProt P08473); assay: Inhibition of HxBP—Rh labeling of neprilysin in MUM-2B membrane proteome (competitive activity-based profiling, in-gel fluorescence); assay type: binding; settings: 50 nM HxBP—Rh probe, three trials, 95% confidence limits 12-23 nM
Chain of neprilysin (P08473 whole entry): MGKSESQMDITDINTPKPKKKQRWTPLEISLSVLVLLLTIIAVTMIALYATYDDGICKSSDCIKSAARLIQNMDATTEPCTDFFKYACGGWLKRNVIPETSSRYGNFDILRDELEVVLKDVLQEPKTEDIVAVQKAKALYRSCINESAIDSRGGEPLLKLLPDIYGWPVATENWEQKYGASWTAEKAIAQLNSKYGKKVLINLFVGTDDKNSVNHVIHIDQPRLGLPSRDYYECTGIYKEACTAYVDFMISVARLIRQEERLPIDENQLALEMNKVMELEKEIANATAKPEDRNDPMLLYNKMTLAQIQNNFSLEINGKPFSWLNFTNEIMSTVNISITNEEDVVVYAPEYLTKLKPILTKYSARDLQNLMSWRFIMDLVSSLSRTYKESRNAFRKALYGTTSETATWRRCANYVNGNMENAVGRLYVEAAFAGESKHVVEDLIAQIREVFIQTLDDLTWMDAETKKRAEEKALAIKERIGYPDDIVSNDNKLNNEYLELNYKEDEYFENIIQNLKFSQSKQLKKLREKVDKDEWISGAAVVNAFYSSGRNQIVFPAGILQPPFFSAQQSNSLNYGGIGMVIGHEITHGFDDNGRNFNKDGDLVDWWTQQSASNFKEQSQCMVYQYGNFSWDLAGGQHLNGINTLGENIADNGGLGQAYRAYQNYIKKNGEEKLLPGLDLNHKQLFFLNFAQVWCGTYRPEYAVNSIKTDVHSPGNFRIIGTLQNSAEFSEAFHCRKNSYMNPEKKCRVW
Description: (§2) For labeling and detection of MPs using HxBP—Rh, the following technique can be used. […] Kidney and cancer cell proteomes, prepared as known to those having ordinary skill in the art, can be adjusted to 1 mg/ml in 50 mM Tris-HCl buffer (pH 8.0) prior to labeling. […] Labeled samples can be separated by SDS-PAGE, and visualized in-gel with a Hitachi FMBio IIe flatbed scanner (Mirabio). Integrated band intensities can be calculated from several independent labeling reactions, and averaged to provide the level of each enzyme activity in each sample.
as §1
(§3) Right panels show the concentration-dependence of inhibition of HxBP—Rh labeling of by GM6001 (each data point corresponds to the average of three independent trials and is presented as a percentage of control reactions conducted without GM6001).

MMP-2 = target: T2, MMP-2 (Homo sapiens, UniProt P08253); assay: Activity-based labeling of purified MMP-2 added to mouse kidney proteome; settings: GM6001 5 μM or TIMP-1 200 ng, HxBP—Rh 100 nM
T2 sequence (P08253 110-660): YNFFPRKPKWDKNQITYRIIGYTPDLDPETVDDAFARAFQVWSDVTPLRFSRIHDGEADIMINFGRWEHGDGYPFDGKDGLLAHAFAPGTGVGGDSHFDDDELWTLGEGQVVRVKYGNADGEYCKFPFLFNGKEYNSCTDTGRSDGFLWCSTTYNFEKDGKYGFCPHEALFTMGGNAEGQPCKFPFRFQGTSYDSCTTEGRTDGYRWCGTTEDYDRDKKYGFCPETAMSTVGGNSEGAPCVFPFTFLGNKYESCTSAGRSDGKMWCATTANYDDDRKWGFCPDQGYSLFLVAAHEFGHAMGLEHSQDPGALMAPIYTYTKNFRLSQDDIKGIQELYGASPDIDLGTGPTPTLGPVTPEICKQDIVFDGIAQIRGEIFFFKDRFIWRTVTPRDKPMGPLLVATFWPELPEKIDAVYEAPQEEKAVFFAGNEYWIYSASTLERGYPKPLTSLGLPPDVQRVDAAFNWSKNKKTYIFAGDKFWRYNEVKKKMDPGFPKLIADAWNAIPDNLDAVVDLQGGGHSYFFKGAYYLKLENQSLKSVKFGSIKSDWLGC
Description: For labeling and detection of MPs using HxBP—Rh, the following technique can be used. Purified MMP-2 can be diluted in buffer 1 (30 ng of enzyme) and mixed with 100 nM HxBP—Rh in the presence or absence of 5 μM GM6001 or TIMP-1 (80 ng). These mixtures can be pre-incubated on ice for 15 min prior to irradiation at 365 nm for 1 hour (on ice) followed by quenching with one volume of standard 2× SDS/PAGE loading buffer (reducing). Kidney and cancer cell proteomes, prepared as known to those having ordinary skill in the art, can be adjusted to 1 mg/ml in 50 mM Tris-HCl buffer (pH 8.0) prior to labeling. […] Labeled samples can be separated by SDS-PAGE, and visualized in-gel with a Hitachi FMBio IIe flatbed scanner (Mirabio). Integrated band intensities can be calculated from several independent labeling reactions, and averaged to provide the level of each enzyme activity in each sample.
With the reference to FIG. 3A, purified MMP-2 (100 ng) or pro-MMP-2 (100 ng) were added to a mouse kidney proteome (15 μL, 1 μg protein/μL) and treated with HxBP—Rh (100 nM) for 15 min prior to photocrosslinking and analysis by SDS-PAGE and in-gel fluorescence scanning.
FIG. 3B illustrates HxBP—Rh labeling of a serial dilution of purified MMP-2 added to a mouse kidney proteome.

[2] = target: T3, leucine aminopeptidase (LAP) (Mus musculus, UniProt Q9CPY7); assay: Inhibition of HxBP—Rh labeling of leucine aminopeptidase in mouse kidney soluble proteome
T3 sequence (Q9CPY7 1-519): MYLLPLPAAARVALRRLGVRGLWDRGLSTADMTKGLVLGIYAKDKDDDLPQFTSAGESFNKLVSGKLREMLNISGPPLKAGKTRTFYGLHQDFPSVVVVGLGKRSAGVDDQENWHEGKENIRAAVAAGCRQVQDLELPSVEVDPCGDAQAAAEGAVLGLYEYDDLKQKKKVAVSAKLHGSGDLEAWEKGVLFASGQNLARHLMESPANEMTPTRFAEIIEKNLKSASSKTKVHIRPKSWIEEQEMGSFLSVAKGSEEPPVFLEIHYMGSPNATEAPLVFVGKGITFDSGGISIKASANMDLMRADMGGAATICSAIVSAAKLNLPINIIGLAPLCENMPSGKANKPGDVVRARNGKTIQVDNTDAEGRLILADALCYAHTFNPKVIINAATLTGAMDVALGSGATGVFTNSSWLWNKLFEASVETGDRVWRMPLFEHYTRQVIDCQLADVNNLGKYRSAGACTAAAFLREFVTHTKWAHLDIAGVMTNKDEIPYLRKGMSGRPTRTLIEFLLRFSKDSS
Description: as §2, §1, §3

IC50 [1]	Effect on HxBP—Rh labeling of ~80 kDa protein (DPPIII) ([1]; GM6001 5 μM, HxBP—Rh 100 nM, soluble proteome from MCF-7 cells)	IC50 (neprilysin)	IC50 [2]	Molecule	Effect on HxBP—Rh labeling of MMP-2 in whole proteome (MMP-2)
0.076 µM	blocked	0.017 µM	0.111 µM	CNC(=O)[C@H](Cc1c[nH]c2ccccc12)NC(=O)[C@@H](CC(=O)NO)CC(C)C [GM6001]	blocked
–	–	–	–	TIMP-1: inhibitor of MMP-2 used to block probe labeling	blocked

Reference: patent publication US7348437B2, “Proteomic analysis” (The Scripps Research Institute, priority 2004, dated 2008)
